Experimental findings from patent publication US8729095B2, “3-(biaryloxy)propionic acid derivatives for prevention and/or treatment of thromboembolic diseases” (Daiichi Sankyo Company, Limited, priority 2009, dated 2014) are described below.

The test system of this experiment is platelet aggregation induced by ADP in human platelet-rich plasma (PRP). In words: Human platelet aggregation inhibitory activity (ADP-induced, platelet-rich plasma). The experiment is classed as cell-based. Conditions: 8 min, ADP final concentration 20 μM, maximum aggregation rate, measured for 8 minutes. The method, then:
A blood collecting syringe containing 1/10 volume of a 3.8% sodium citrate solution was used to collect blood from radial vein of a healthy person. The collected blood was centrifuged at 180×g at room temperature for 10 minutes to separate the supernatant (platelet-rich plasma; PRP). After PRP was separately collected, the remaining blood was centrifuged at 1,600×g for 10 minutes to separately collect platelet-poor plasma (PPP) of the upper layer. PRP was left at rest at 16° C. for 30 minutes, and subsequently used for measurement.
200 μL of the separately collected PRP was dispensed into a cuvette for the aggregation test, and 1 μL of dimethylsulfoxide (control) or a test compound solution diluted with dimethylsulfoxide was added, followed by incubation at 37° C. for 2 minutes. Subsequently, 2 μL of 2 mM ADP was added (final concentration 20 μM) to induce platelet aggregation.
Platelet aggregation was measured for 8 minutes using an aggregometer (MCM HEMA TRACER 313M; MC MEDICAL, INC.). With the light transmittance rate of PPP being set as an aggregation value of 100%, the maximum aggregation rate was determined for each concentration of the test compounds to calculate IC50 values.

A word on the pIC50: it is the negative decadic logarithm of the IC50, by convention in mol/L.

pIC50: −log10 of the molar value.

The molecule `CC(C)(COc1ccccc1-c1ccc(C(=O)N2CCC(N3C(=O)C(C)(C)Oc4ncc(Cl)cc43)CC2)c([N+](=O)[O-])c1)C(=O)O` [Example 22, 3-[(4′-{[4-(7-Chloro-3,3-dimethyl-2-oxo-2,3-dihydro-1H-pyrido[2,3-b][1,4]oxazin-1-yl)piperidin-1-yl]carbonyl}-3′-nitrobiphenyl-2-yl)oxy]-2,2-dimethylpropanoic acid] showed a pIC50 of 5.24.
`C[C@H](CC(=O)O)Oc1ccc(F)cc1-c1ccc(C(=O)N2CCC(N3C(=O)COc4ncc(Cl)cc43)CC2)c(F)c1` [Example 31, (3R)-3-[(4′-{[4-(7-Chloro-2-oxo-2,3-dihydro-1H-pyrido[2,3-b][1,4]oxazin-1-yl)piperidin-1-yl]carbonyl}-3′,5-difluorobiphenyl-2-yl)oxy]butanoic acid] had a negative-log IC50 (pIC50) of 4.74.
Molecule `C[C@@H](COc1ccccc1-c1ccc(C(=O)N2CCC(N3C(=O)CCc4ncc(Cl)cc43)CC2)c(F)c1)C(=O)O` [Example 12, (2S)-3-[(4′-{[4-(7-Chloro-2-oxo-3,4-dihydro-1,5-naphthyridin-1(2H)-yl)piperidin-1-yl]carbonyl}-3′-fluorobiphenyl-2-yl)oxy]-2-methylpropanoic acid] showed a pIC50 of 4.80.
The result for `C[C@@H](COc1ccc(F)cc1-c1cnc(C(=O)N2CCC(N3C(=O)C(C)(C)Cc4ncc(Cl)cc43)CC2)c(F)c1)C(=O)O` [Example 48, (2S)-3-[2-(6-{[4-(7-Chloro-3,3-dimethyl-2-oxo-3,4-dihydro-1,5-naphthyridin-1(2H)-yl)piperidin-1-yl]carbonyl}-5-fluoropyridin-3-yl)-4-fluorophenoxy]-2-methylpropanoic acid] reads 5.43; that for `C[C@@H](COc1ccccc1-c1cnc(C(=O)N2CCC(N3C(=O)C(C)(C)Oc4ncc(Cl)cc43)CC2)c(F)c1)C(=O)O` [Example 47, (2S)-3-[2-(6-{[4-(7-Chloro-3,3-dimethyl-2-oxo-2,3-dihydro-1H-pyrido[2,3-b][1,4]oxazin-1-yl)piperidin-1-yl]carbonyl}-5-fluoropyridin-3-yl)phenoxy]-2-methylpropanoic acid], 5.70; that for `C[C@H](CC(=O)O)Oc1ccccc1-c1cnc(C(=O)N2CCC(N3C(=O)C(C)(C)Oc4ncc(Cl)cc43)CC2)c(F)c1` [Example 39, (3R)-3-[2-(6-{[4-(7-Chloro-3,3-dimethyl-2-oxo-2,3-dihydro-1H-pyrido[2,3-b][1,4]oxazin-1-yl)piperidin-1-yl]carbonyl}-5-fluoropyridin-3-yl)phenoxy]butanoic acid], 6.00.
With `Cc1cc(-c2ccccc2O[C@H](C)CC(=O)O)c(C)cc1C(=O)N1CCC(N2C(=O)C(C)(C)Oc3ncc(Cl)cc32)CC1` [Example 54, (3R)-3-[(4′-{[4-(7-Chloro-3,3-dimethyl-2-oxo-2,3-dihydro-1H-pyrido[2,3-b][1,4]oxazin-1-yl)piperidin-1-yl]carbonyl}-2′,5′-dimethylbiphenyl-2-yl)oxy]butanoic acid], the pIC50 was 4.94.
The result for `C[C@@H]1Oc2ncc(F)cc2N(C2CCN(C(=O)c3ccc(-c4ccccc4OCC(C)(C)C(=O)O)cc3F)CC2)C1=O` [Example 1, 3-{[3′-Fluoro-4′-({4-[(3S)-7-fluoro-3-methyl-2-oxo-2,3-dihydro-1H-pyrido[2,3-b][1,4]oxazin-1-yl]piperidin-1-yl}carbonyl)biphenyl-2-yl]oxy}-2,2-dimethylpropanoic acid] reads 4.82.
Under `CC(C)(COc1ccccc1-c1ccc(C(=O)N2CCC(N3C(=O)C(C)(C)Oc4ncc(Cl)cc43)CC2)c(O)c1)C(=O)O` [Example 21, 3-[(4′-{[4-(7-Chloro-3,3-dimethyl-2-oxo-2,3-dihydro-1H-pyrido[2,3-b][1,4]oxazin-1-yl)piperidin-1-yl]carbonyl}-3′-hydroxybiphenyl-2-yl)oxy]-2,2-dimethylpropanoic acid] stands 5.06.
The result for `Cc1cnc2c(c1)N(C1CCN(C(=O)c3ccc(-c4ccccc4OCC(C)(C)C(=O)O)cc3F)CC1)C(=O)C(C)O2` (stereo not shown) [Example 4, 3-[(4′-{[4-(3,7-Dimethyl-2-oxo-2,3-dihydro-1H-pyrido[2,3-b][1,4]oxazin-1-yl)piperidin-1-yl]carbonyl}-3′-fluorobiphenyl-2-yl)oxy]-2,2-dimethylpropanoic acid] reads 5.40; that for `C[C@H](CC(=O)O)Oc1ccccc1-c1ccc(C(=O)N2CCC(N3C(=O)COc4ncc(Cl)cc43)CC2)c(F)c1` [Example 7, (3R)-3-[(4′-{[4-(7-Chloro-2-oxo-2,3-dihydro-1H-pyrido[2,3-b][1,4]oxazin-1-yl)piperidin-1-yl]carbonyl}-3′-fluorobiphenyl-2-yl)oxy]butanoic acid], 5.10; that for `CC1(C)Cc2ncc(Cl)cc2N(C2CCN(C(=O)c3ccc(-c4cc(F)ccc4OCCC(=O)O)cc3F)CC2)C1=O` [Example 37, 3-[(4′-{[4-(7-Chloro-3,3-dimethyl-2-oxo-3,4-dihydro-1,5-naphthyridin-1(2H)-yl)piperidin-1-yl]carbonyl}-3′,5-difluorobiphenyl-2-yl)oxy]propanoic acid], 5.18.
`C[C@H](C(=O)O)[C@@H](C)Oc1ccccc1-c1ccc(C(=O)N2CCC(N3C(=O)C(C)(C)Oc4ncc(Cl)cc43)CC2)c(F)c1` [Example 33, (2S,3R)-3-[(4′-{[4-(7-Chloro-3,3-dimethyl-2-oxo-2,3-dihydro-1H-pyrido[2,3-b][1,4]oxazin-1-yl)piperidin-1-yl]carbonyl}-3′-fluorobiphenyl-2-yl)oxy]-2-methylbutanoic acid] gave a pIC50 of 4.80.
The result for `C[C@H](CC(=O)O)Oc1ccc(F)cc1-c1cnc(C(=O)N2CCC(N3C(=O)[C@H](C)Oc4ncc(Cl)cc43)CC2)c(F)c1` [Example 43, (3R)-3-{2-[6-({4-[(3S)-7-Chloro-3-methyl-2-oxo-2,3-dihydro-1H-pyrido[2,3-b][1,4]oxazin-1-yl]piperidin-1-yl}carbonyl)-5-fluoropyridin-3-yl]-4-fluorophenoxy}butanoic acid] reads 5.59; that for `C[C@@H]1Oc2ncc(Cl)cc2N(C2CCN(C(=O)c3ccc(-c4ccccc4OCC(C)(C)C(=O)O)cc3)CC2)C1=O` [Example 20, 3-{[4′-({4-[(3S)-7-Chloro-3-methyl-2-oxo-2,3-dihydro-1H-pyrido[2,3-b][1,4]oxazin-1-yl]piperidin-1-yl}carbonyl)biphenyl-2-yl]oxy}-2,2-dimethylpropanoic acid], 5.55; that for `CC(C)(COc1ccccc1-c1ccc(C(=O)N2CCC(N3C(=O)C(C)(C)Oc4ncc(C(F)(F)F)cc43)CC2)c(F)c1)C(=O)O` [Example 3, 3-{[4′-({4-[3,3-Dimethyl-2-oxo-7-(trifluoromethyl)-2,3-dihydro-1H-pyrido[2,3-b][1,4]oxazin-1-yl]piperidin-1-yl}carbonyl)-3′-fluorobiphenyl-2-yl]oxy}-2,2-dimethylpropanoic acid], 5.42.
Under `C[C@H](CC(=O)O)Oc1ccc(F)cc1-c1ccc(C(=O)N2CCC(N3C(=O)CCc4ncc(Cl)cc43)CC2)c(F)c1` [Example 32, (3R)-3-[(4′-{[4-(7-Chloro-2-oxo-3,4-dihydro-1,5-naphthyridin-1(2H)-yl)piperidin-1-yl]carbonyl}-3′,5-difluorobiphenyl-2-yl)oxy]butanoic acid] stands 4.77; under `C[C@H](CC(=O)O)Oc1ccccc1-c1ccc(C(=O)N2CCC(N3C(=O)CCc4ncc(Cl)cc43)CC2)c(F)c1` [Example 8, (3R)-3-[(4′-{[4-(7-Chloro-2-oxo-3,4-dihydro-1,5-naphthyridin-1(2H)-yl)piperidin-1-yl]carbonyl}-3′-fluorobiphenyl-2-yl)oxy]butanoic acid], 4.85.
`Cc1cc(-c2ccccc2OCC(C)(C)C(=O)O)ccc1C(=O)N1CCC(N2C(=O)C3(CC3)Oc3ncc(Cl)cc32)CC1` [Example 15, 3-[(4′-{[4-(7′-Chloro-2′-oxospiro[cyclopropane-1,3′-pyrido[2,3-b][1,4]oxazin]-1′(2′H)-yl)piperidin-1-yl]carbonyl}-3′-methylbiphenyl-2-yl)oxy]-2,2-dimethylpropanoic acid] gave a pIC50 of 5.24.
Under `Cc1cnc2c(c1)N(C1CCN(C(=O)c3ccc(-c4ccccc4O[C@H](C)CC(=O)O)cc3F)CC1)C(=O)C(C)(C)O2` [Example 30, (3R)-3-[(4′-{[4-(3,3,7-Trimethyl-2-oxo-2,3-dihydro-1H-pyrido[2,3-b][1,4]oxazin-1-yl)piperidin-1-yl]carbonyl}-3′-fluorobiphenyl-2-yl)oxy]butanoic acid] stands 5.70; under `C[C@H](CC(=O)O)Oc1ccccc1-c1cnc(C(=O)N2CCC(N3C(=O)[C@H](C)Oc4ncc(Cl)cc43)CC2)c(F)c1` [Example 40, (3R)-3-{2-[6-({4-[(3S)-7-Chloro-3-methyl-2-oxo-2,3-dihydro-1H-pyrido[2,3-b][1,4]oxazin-1-yl]piperidin-1-yl}carbonyl)-5-fluoropyridin-3-yl]phenoxy}butanoic acid], 5.96.
The result for `C[C@@H](COc1ccc(F)cc1-c1cnc(C(=O)N2CCC(N3C(=O)C(C)(C)Oc4ncc(Cl)cc43)CC2)c(F)c1)C(=O)O` [Example 49, (2S)-3-[2-(6-{[4-(7-Chloro-3,3-dimethyl-2-oxo-2,3-dihydro-1H-pyrido[2,3-b][1,4]oxazin-1-yl)piperidin-1-yl]carbonyl}-5-fluoropyridin-3-yl)-4-fluorophenoxy]-2-methylpropanoic acid] reads 5.77.
